In patent publication US10428017B2, “Modulators of the cystic fibrosis transmembrane conductance regulator protein and methods of use” (AbbVie S.à.r.l., priority 2017, dated 2019):
Where two headings read alike, the source gives them in different places.

Target: T1, F508delCFTR (Homo sapiens, UniProt P13569, DEL508-508)
T1 construct: expressed in transfected cells; host or cells: CFBE4lo-F508delCFTR-HRP cells (human lung derived epithelial cell line, doxycycline-inducible)
Test: Cell Surface Expression-Horse Radish Peroxidase (CSE-HRP) Assay
Format: cell-based
Conditions: for EC50: CFBE4lo-F508delCFTR-HRP cells, 18-24 hours at 33° C.; for Emax / Maximum % activity (with co-corrector): maximum at any tested concentration (up to 20 μM), normalized to on-plate positive control (2 μM co-corrector); for Maximum % activity (with co-corrector): with co-corrector 2 μM
Procedure, shortened: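 CFBE4lo− cells expressing F508delCFTR with HRP in the fourth exofacial loop, induced 72 h with 0.5 μg/mL doxycycline, then treated 18-24 h at 33° C, alone or with 2 μM co-corrector (8 points, 3-fold, top 20 μM). Luminol luminescence after washing; % activity normalized to DMSO and 2 μM positive control; sigmoidal EC50 from triplicate plates.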

[1] = test compound without co-corrector, HRP luminescence readout, read-out: EC50 (without co-corrector)
[2] = test compound without co-corrector
[3] = with co-corrector 2 μM 3-[(2R,4R)-4-({[1-(2,2-difluoro-1,3-benzodioxol-5-yl)cyclopropyl]carbonyl}amino)-7-methoxy-3,4-dihydro-2H-chromen-2-yl]benzoic acid, read-out: EC50 (with co-corrector)

T1 sequence (P13569 with tags, fused parts or gaps DEL508-508): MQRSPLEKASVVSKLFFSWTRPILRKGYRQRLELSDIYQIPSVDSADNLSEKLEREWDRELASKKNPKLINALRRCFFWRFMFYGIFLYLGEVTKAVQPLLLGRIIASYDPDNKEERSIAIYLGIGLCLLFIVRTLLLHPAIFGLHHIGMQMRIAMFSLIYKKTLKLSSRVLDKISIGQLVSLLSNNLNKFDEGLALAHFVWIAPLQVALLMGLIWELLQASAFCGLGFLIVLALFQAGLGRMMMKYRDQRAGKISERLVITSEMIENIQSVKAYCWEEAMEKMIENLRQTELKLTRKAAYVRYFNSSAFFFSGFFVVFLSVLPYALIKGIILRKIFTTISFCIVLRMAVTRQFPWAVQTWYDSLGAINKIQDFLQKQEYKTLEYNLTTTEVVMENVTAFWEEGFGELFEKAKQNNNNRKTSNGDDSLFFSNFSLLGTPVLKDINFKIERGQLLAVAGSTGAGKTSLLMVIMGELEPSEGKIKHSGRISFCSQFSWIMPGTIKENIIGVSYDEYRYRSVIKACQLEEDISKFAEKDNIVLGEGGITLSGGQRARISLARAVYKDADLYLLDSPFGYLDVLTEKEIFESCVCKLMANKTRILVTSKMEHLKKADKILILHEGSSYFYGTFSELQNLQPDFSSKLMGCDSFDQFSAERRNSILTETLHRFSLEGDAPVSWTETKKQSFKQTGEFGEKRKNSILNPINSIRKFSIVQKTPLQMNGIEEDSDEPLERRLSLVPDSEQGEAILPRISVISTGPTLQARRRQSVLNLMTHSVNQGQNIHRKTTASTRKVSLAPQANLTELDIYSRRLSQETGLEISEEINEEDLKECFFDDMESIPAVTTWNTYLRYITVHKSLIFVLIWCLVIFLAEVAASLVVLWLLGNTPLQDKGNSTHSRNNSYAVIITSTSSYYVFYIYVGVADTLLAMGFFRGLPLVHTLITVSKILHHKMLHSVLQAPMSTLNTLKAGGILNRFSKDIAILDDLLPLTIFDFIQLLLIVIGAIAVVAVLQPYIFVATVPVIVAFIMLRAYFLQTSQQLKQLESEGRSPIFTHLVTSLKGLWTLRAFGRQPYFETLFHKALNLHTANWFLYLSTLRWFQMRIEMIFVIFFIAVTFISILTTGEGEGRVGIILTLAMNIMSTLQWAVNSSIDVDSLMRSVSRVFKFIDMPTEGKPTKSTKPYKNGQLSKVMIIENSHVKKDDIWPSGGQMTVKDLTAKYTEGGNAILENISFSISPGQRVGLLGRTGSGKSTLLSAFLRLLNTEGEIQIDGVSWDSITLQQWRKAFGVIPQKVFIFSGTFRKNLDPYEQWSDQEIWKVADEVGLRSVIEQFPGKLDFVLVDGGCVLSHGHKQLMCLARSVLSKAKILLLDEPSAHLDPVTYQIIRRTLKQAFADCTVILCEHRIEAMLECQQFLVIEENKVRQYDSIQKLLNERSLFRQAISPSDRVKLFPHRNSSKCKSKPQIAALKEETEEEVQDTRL

| Compound | EC50 [1] [µM] | Emax [2] [%] | EC50 [3] [µM] | Maximum % activity (with co-corrector) |
| --- | --- | --- | --- | --- |
| O=C(NS(=O)(=O)c1cccc2ccccc12)C1OCCc2ccc(OC(F)(F)F)cc21 (stereo not drawn) [Example 109, N-(naphthalene-1-sulfonyl)-7-(trifluoromethoxy)-3,4-dihydro-1H-2-benzopyran-1-carboxamide] | – | – | 3 to 10 | ++ (≥150 and <350) |
| COc1ccc(C2CCC2)c2c1C(C(=O)NS(=O)(=O)c1cccc3ncn(C)c13)CO2 (stereo not drawn) [Example 87, 7-cyclobutyl-4-methoxy-N-(1-methyl-1H-benzimidazole-7-sulfonyl)-2,3-dihydro-1-benzofuran-3-carboxamide] | < 3 | ≥ 150 | < 3 | +++ (≥350) |
| Cc1cc2c(c(C)c1C(=O)c1ccccc1)C(C(=O)NS(=O)(=O)c1cccc3ccccc13)CCO2 (stereo not drawn) [Example 5, 6-benzoyl-5,7-dimethyl-N-(naphthalene-1-sulfonyl)-3,4-dihydro-2H-1-benzopyran-4-carboxamide] | < 3 | ≥ 150 | < 3 | +++ (≥350) |
| CCSC[C@H]1C[C@@](C(=O)NS(=O)(=O)c2cccc3ccccc23)(c2ccccc2)c2ccccc2O1 [Example 2, (2R,4R)-2-[(ethylsulfanyl)methyl]-N-(naphthalene-1-sulfonyl)-4-phenyl-3,4-dihydro-2H-1-benzopyran-4-carboxamide] | < 3 | 50 to 150 | < 3 | +++ (≥350) |
| COc1cccc2c1C(C(=O)NS(=O)(=O)c1cccc3ccccc13)CC1(CCCCC1)O2 (stereo not drawn) [Example 38, 5-methoxy-N-(naphthalene-1-sulfonyl)-3,4-dihydrospiro[1-benzopyran-2,1′-cyclohexane]-4-carboxamide] | < 3 | ≥ 150 | < 3 | +++ (≥350) |
| COc1ccc(Br)c2c1[C@@H](C(=O)NS(=O)(=O)c1cccc3ncccc13)CC(C)(C)O2 [Example 71, (4S)-8-bromo-5-methoxy-2,2-dimethyl-N-(quinoline-5-sulfonyl)-3,4-dihydro-2H-1-benzopyran-4-carboxamide] | 3 to 10 | ≥ 150 | < 3 | +++ (≥350) |
| COc1ccc(C2CCC2)c2c1[C@H](C(=O)NS(=O)(=O)c1cccc3c1CCCN3)CO2 [Example 101, (3S)-7-cyclobutyl-4-methoxy-N-(1,2,3,4-tetrahydroquinoline-5-sulfonyl)-2,3-dihydro-1-benzofuran-3-carboxamide] | < 3 | ≥ 150 | < 3 | +++ (≥350) |
| Cc1ccc2c(c1)C(C(=O)NS(=O)(=O)c1cccc3ccccc13)(c1ccccc1)CCO2 (stereo not drawn) [Example 18, 6-methyl-N-(naphthalene-1-sulfonyl)-4-phenyl-3,4-dihydro-2H-1-benzopyran-4-carboxamide] | 3 to 10 | 50 to 150 | < 3 | +++ (≥350) |
| COc1ccc(C2CCC2)c2c1[C@@H](C(=O)NS(=O)(=O)c1cccc3c1NCCC3)CO2 (single isomer, unassigned) [Example 98] | 3 to 10 | 50 to 150 | 3 to 10 | +++ (≥350) |
| COc1ccc(C2CCC2)c2c1OCCC2C(=O)NS(=O)(=O)c1cccc2ncccc12 (stereo not drawn) [Example 105, 5-cyclobutyl-8-methoxy-N-(quinoline-5-sulfonyl)-3,4-dihydro-2H-1-benzopyran-4-carboxamide] | 3 to 10 | ≥ 150 | < 3 | +++ (≥350) |
| COc1ccc(Br)c2c1C(C(=O)NS(=O)(=O)c1cccc3ccccc13)CC1(CCCCC1)O2 (stereo not drawn) [Example 41, 8-bromo-5-methoxy-N-(naphthalene-1-sulfonyl)-3,4-dihydrospiro[1-benzopyran-2,1′-cyclohexane]-4-carboxamide] | < 3 | ≥ 150 | < 3 | +++ (≥350) |
| COc1ccc(C2CCC2)c2c1[C@@H](C(=O)NS(=O)(=O)c1cccc3cnn(C)c13)CO2 (single isomer, unassigned) [Example 94] | 3 to 10 | 50 to 150 | < 3 | +++ (≥350) |
| COc1ccc(C2CCC2)c2c1C(C(=O)NS(=O)(=O)c1cccc3[nH]ccc13)CCO2 (stereo not drawn) [Example 102, 8-cyclobutyl-N-(1H-indole-4-sulfonyl)-5-methoxy-3,4-dihydro-2H-1-benzopyran-4-carboxamide] | < 3 | ≥ 150 | < 3 | +++ (≥350) |

More lines, now with the values ahead:

| EC50 [1] [µM] | Emax [2] [%] | EC50 [3] [µM] | Maximum % activity (with co-corrector) | Compound |
| --- | --- | --- | --- | --- |
| < 3 | ≥ 150 | < 3 | +++ (≥350) | COc1ccc(C(F)(F)F)c2c1C(C(=O)NS(=O)(=O)c1cccc3ccccc13)CCO2 (stereo not drawn) [Example 53, 5-methoxy-N-(naphthalene-1-sulfonyl)-8-(trifluoromethyl)-3,4-dihydro-2H-1-benzopyran-4-carboxamide] |
| 3 to 10 | ≥ 150 | < 3 | +++ (≥350) | COc1ccc(C(F)(F)F)c2c1[C@@H](C(=O)NS(=O)(=O)c1cccc3ccccc13)CCO2 [Example 57, (4S)-5-methoxy-N-(naphthalene-1-sulfonyl)-8-(trifluoromethyl)-3,4-dihydro-2H-1-benzopyran-4-carboxamide] |
| 3 to 10 | < 50 | < 3 | ++ (≥150 and <350) | COc1cccc2c1C(C(=O)NS(=O)(=O)c1cccc3ccccc13)CO2 (stereo not drawn) [Example 20, 4-methoxy-N-(naphthalene-1-sulfonyl)-2,3-dihydro-1-benzofuran-3-carboxamide] |
| < 3 | ≥ 150 | < 3 | +++ (≥350) | COc1ccc(Br)c2c1C(C(=O)NS(=O)(=O)c1cccc3ccccc13)CC(C)(C)O2 (stereo not drawn) [Example 52, 8-bromo-5-methoxy-2,2-dimethyl-N-(naphthalene-1-sulfonyl)-3,4-dihydro-2H-1-benzopyran-4-carboxamide] |
| < 3 | ≥ 150 | < 3 | +++ (≥350) | COc1ccc(C(F)(F)F)c2c1[C@H](C(=O)NS(=O)(=O)c1cccc3ccccc13)CCO2 [Example 58, (4R)-5-methoxy-N-(naphthalene-1-sulfonyl)-8-(trifluoromethyl)-3,4-dihydro-2H-1-benzopyran-4-carboxamide] |
| < 3 | ≥ 150 | < 3 | +++ (≥350) | COc1ccc(Br)c2c1C(C(=O)NS(=O)(=O)c1cccc3ccccc13)CCO2 (stereo not drawn) [Example 11, 8-bromo-5-methoxy-N-(naphthalene-1-sulfonyl)-3,4-dihydro-2H-1-benzopyran-4-carboxamide] |
| 3 to 10 | ≥ 150 | 3 to 10 | +++ (≥350) | COc1ccc(OC)c2c1OCC2C(=O)NS(=O)(=O)c1cccc2ccccc12 (stereo not drawn) [Example 62, 4,7-dimethoxy-N-(naphthalene-1-sulfonyl)-2,3-dihydro-1-benzofuran-3-carboxamide] |
| < 3 | ≥ 150 | < 3 | +++ (≥350) | COc1ccc(C2CCC2)c2c1[C@H](C(=O)NS(=O)(=O)c1cccc3ccccc13)CCO2 [Example 56, (4R)-8-cyclobutyl-5-methoxy-N-(naphthalene-1-sulfonyl)-3,4-dihydro-2H-1-benzopyran-4-carboxamide] |
| 3 to 10 | 50 to 150 | 3 to 10 | +++ (≥350) | O=C(NS(=O)(=O)c1cccc2ccccc12)C1CCOc2ccccc21 (stereo not drawn) [Example 24, N-(naphthalene-1-sulfonyl)-3,4-dihydro-2H-1-benzopyran-4-carboxamide] |
| 3 to 10 | 50 to 150 | < 3 | +++ (≥350) | COc1ccc(Br)c2c1CCOC2C(=O)NS(=O)(=O)c1cccc2ccccc12 (stereo not drawn) [Example 108, 8-bromo-5-methoxy-N-(naphthalene-1-sulfonyl)-3,4-dihydro-1H-2-benzopyran-1-carboxamide] |
